Experimental data taken from US8802597B2, “Herbicidal pyrimidines” (E I du Pont de Nemours and Company, priority 2003, dated 2014).

Experiments:
Assay in all cases: Test C pre/postemergence
Type in all cases: in vivo
Conditions in all cases: Postemergence
[1] = tested on: common ragweed (Ambrosia elatior)
Procedure, shortened: (§1)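 Greenhouse pot test: seeds treated preemergence, or plants at 2–18 cm (1- to 4-leaf stage) treated postemergence, with compound in non-phytotoxic solvent plus surfactant. Visual rating versus untreated controls after 12–14 days, scale 0 (no effect) to 100 (complete control); dash means not tested.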

[2] = tested on: lambsquarters (Chenopodium album)
Procedure, shortened: as §1

[3] = tested on: morningglory (Ipomoea coccinea)
Procedure, shortened: as §1

[4] = tested on: goosegrass (Eleusine indica)
Procedure, shortened: as §1

[5] = tested on: bermudagrass (Cynodon dactylon)
Procedure, shortened: as §1

[6] = tested on: velvetleaf (Abutilon theophrasti)
Procedure, shortened: as §1

[7] = tested on: soybean (Glycine max)
Procedure, shortened: as §1

[8] = tested on: yellow nutsedge (Cyperus esculentus)
Procedure, shortened: as §1

[9] = tested on: Surinam grass (Brachiaria decumbens)
Procedure, shortened: as §1

[10] = tested on: woolly cupgrass (Eriochloa villosa)
Procedure, shortened: as §1

[11] = tested on: giant foxtail (Setaria faberii)
Procedure, shortened: as §1

[12] = 62 g ai/ha, scale 0 to 100 (0 no effect, 100 complete control)
[13] = 125 g ai/ha, scale 0 to 100 (0 no effect, 100 complete control)

## CCOC(=O)c1nc(C2CC2)nc(NN)c1Br [Compound 42]
[1]; Ambrosia artemisiifolia, post-emergence, 31 g ai/ha, read-out: Plant response rating (scale of 0 to 100), Ragweed
  pest or weed control at 31 g/ha: 0%
[1]; Ambrosia artemisiifolia, post-emergence, 62 g ai/ha, scale 0 to 100 (0 no effect, 100 complete control), read-out: Ragweed plant response rating
  pest or weed control at 62 g/ha: 10%
[1]; Ambrosia artemisiifolia, post-emergence, 125 g ai/ha, scale 0 to 100 (0 no effect, 100 complete control), read-out: Ragweed plant response rating
  pest or weed control at 125 g/ha: 40%
[1]; Ambrosia artemisiifolia, post-emergence, 250 g ai/ha, scale 0 to 100, read-out: Plant response rating, Ragweed
  pest or weed control at 250 g/ha: 40%
[2]; Chenopodium album, post-emergence, 31 g ai/ha, read-out: Plant response rating (scale of 0 to 100), Lambsquarters
  pest or weed control at 31 g/ha: 10%
[2]; Chenopodium album, post-emergence, 62 g ai/ha, scale 0 to 100 (0 no effect, 100 complete control), read-out: Lambsquarters plant response rating
  pest or weed control at 62 g/ha: 20%
[2]; Chenopodium album, post-emergence, 125 g ai/ha, scale 0 to 100 (0 no effect, 100 complete control), read-out: Lambsquarters plant response rating
  pest or weed control at 125 g/ha: 20%
[2]; Chenopodium album, post-emergence, 250 g ai/ha, scale 0 to 100, read-out: Plant response rating, Lambsquarters
  pest or weed control at 250 g/ha: 25%
[3]; Ipomoea, post-emergence, 31 g ai/ha, read-out: Plant response rating (scale of 0 to 100), Morningglory
  pest or weed control at 31 g/ha: 0%
[3]; Ipomoea, post-emergence, 62 g ai/ha, scale 0 to 100 (0 no effect, 100 complete control), read-out: Morningglory plant response rating
  pest or weed control at 62 g/ha: 50%
[3]; Ipomoea, post-emergence, 125 g ai/ha, scale 0 to 100 (0 no effect, 100 complete control), read-out: Morningglory plant response rating
  pest or weed control at 125 g/ha: 80%
[3]; Ipomoea, post-emergence, 250 g ai/ha, scale 0 to 100, read-out: Plant response rating, Morningglory
  pest or weed control at 250 g/ha: 85%
[4]; Eleusine indica, post-emergence, 31 g ai/ha, read-out: Plant response rating (scale of 0 to 100), Goosegrass
  pest or weed control at 31 g/ha: 0%
[4]; Eleusine indica, post-emergence, 62 g ai/ha, scale 0 to 100 (0 no effect, 100 complete control), read-out: Goosegrass plant response rating
  pest or weed control at 62 g/ha: 0%
[4]; Eleusine indica, post-emergence, 125 g ai/ha, scale 0 to 100 (0 no effect, 100 complete control), read-out: Goosegrass plant response rating
  pest or weed control at 125 g/ha: 0%
[4]; Eleusine indica, post-emergence, 250 g ai/ha, scale 0 to 100, read-out: Plant response rating, Goosegrass
  pest or weed control at 250 g/ha: 0%
[5]; Cynodon dactylon, post-emergence, 31 g ai/ha, read-out: Plant response rating (scale of 0 to 100), Bermudagrass
  pest or weed control at 31 g/ha: 0%
[5]; Cynodon dactylon, post-emergence, 62 g ai/ha, scale 0 to 100 (0 no effect, 100 complete control), read-out: Bermudagrass plant response rating
  pest or weed control at 62 g/ha: 0%
[5]; Cynodon dactylon, post-emergence, 125 g ai/ha, scale 0 to 100 (0 no effect, 100 complete control), read-out: Bermudagrass plant response rating
  pest or weed control at 125 g/ha: 0%
[5]; Cynodon dactylon, post-emergence, 250 g ai/ha, scale 0 to 100, read-out: Plant response rating, Bermudagrass
  pest or weed control at 250 g/ha: 5%
[6]; Abutilon theophrasti, post-emergence, 31 g ai/ha, read-out: Plant response rating (scale of 0 to 100), Velvetleaf
  pest or weed control at 31 g/ha: 0%
[6]; Abutilon theophrasti, post-emergence, 62 g ai/ha, scale 0 to 100 (0 no effect, 100 complete control), read-out: Velvetleaf plant response rating
  pest or weed control at 62 g/ha: 0%
[6]; Abutilon theophrasti, post-emergence, 125 g ai/ha, scale 0 to 100 (0 no effect, 100 complete control), read-out: Velvetleaf plant response rating
  pest or weed control at 125 g/ha: 0%
[6]; Abutilon theophrasti, post-emergence, 250 g ai/ha, scale 0 to 100, read-out: Plant response rating, Velvetleaf
  pest or weed control at 250 g/ha: 20%
[7]; Glycine max, post-emergence, 31 g ai/ha, read-out: Plant response rating (scale of 0 to 100), Soybean
  plant injury at 31 g/ha: 10%
[7]; Glycine max, post-emergence, 62 g ai/ha, scale 0 to 100 (0 no effect, 100 complete control), read-out: Soybean plant response rating
  plant injury at 62 g/ha: 30%
[7]; Glycine max, post-emergence, 125 g ai/ha, scale 0 to 100 (0 no effect, 100 complete control), read-out: Soybean plant response rating
  plant injury at 125 g/ha: 40%
[7]; Glycine max, post-emergence, 250 g ai/ha, scale 0 to 100, read-out: Plant response rating, Soybean
  plant injury at 250 g/ha: 70%
[8]; Cyperus, post-emergence, 31 g ai/ha, read-out: Plant response rating (scale of 0 to 100), Nutsedge, Yellow
  pest or weed control at 31 g/ha: 0%
[8]; Cyperus, post-emergence, 62 g ai/ha, scale 0 to 100 (0 no effect, 100 complete control), read-out: Nutsedge, Yellow plant response rating
  pest or weed control at 62 g/ha: 0%
[8]; Cyperus, post-emergence, 125 g ai/ha, scale 0 to 100 (0 no effect, 100 complete control), read-out: Nutsedge, Yellow plant response rating
  pest or weed control at 125 g/ha: 0%
[8]; Cyperus, post-emergence, 250 g ai/ha, scale 0 to 100, read-out: Plant response rating, Nutsedge, Yellow
  pest or weed control at 250 g/ha: 0%
[9]; Urochloa decumbens, post-emergence, 125 g ai/ha, scale 0 to 100 (0 no effect, 100 complete control), read-out: Surinam Grass plant response rating
  pest or weed control at 125 g/ha: 0%
[9]; Urochloa decumbens, post-emergence, 31 g ai/ha, read-out: Plant response rating (scale of 0 to 100), Surinam Grass
  pest or weed control at 31 g/ha: 0%
[9]; Urochloa decumbens, post-emergence, 62 g ai/ha, scale 0 to 100 (0 no effect, 100 complete control), read-out: Surinam Grass plant response rating
  pest or weed control at 62 g/ha: 0%
[9]; Urochloa decumbens, post-emergence, 250 g ai/ha, scale 0 to 100, read-out: Plant response rating, Surinam Grass
  pest or weed control at 250 g/ha: 0%
[10]; Eriochloa villosa, post-emergence, 31 g ai/ha, read-out: Plant response rating (scale of 0 to 100), Cupgrass, Woolly
  pest or weed control at 31 g/ha: 0%
[10]; Eriochloa villosa, post-emergence, 62 g ai/ha, scale 0 to 100 (0 no effect, 100 complete control), read-out: Cupgrass, Woolly plant response rating
  pest or weed control at 62 g/ha: 0%
[10]; Eriochloa villosa, post-emergence, 125 g ai/ha, scale 0 to 100 (0 no effect, 100 complete control), read-out: Cupgrass, Woolly plant response rating
  pest or weed control at 125 g/ha: 0%
[10]; Eriochloa villosa, post-emergence, 250 g ai/ha, scale 0 to 100, read-out: Plant response rating, Cupgrass, Woolly
  pest or weed control at 250 g/ha: 5%
[11]; Setaria faberi, post-emergence, 125 g ai/ha, scale 0 to 100 (0 no effect, 100 complete control), read-out: Foxtail, Giant plant response rating
  pest or weed control at 125 g/ha: 0%
[11]; Setaria faberi, post-emergence, 31 g ai/ha, read-out: Plant response rating (scale of 0 to 100), Foxtail, Giant
  pest or weed control at 31 g/ha: 0%
[11]; Setaria faberi, post-emergence, 62 g ai/ha, scale 0 to 100 (0 no effect, 100 complete control), read-out: Foxtail, Giant plant response rating
  pest or weed control at 62 g/ha: 0%
[11]; Setaria faberi, post-emergence, 250 g ai/ha, scale 0 to 100, read-out: Plant response rating, Foxtail, Giant
  pest or weed control at 250 g/ha: 0%

## CC(=O)NN=Cc1nc(C2CC2)nc(N)c1Br [Compound 51]
[1]; [12]
  Ragweed plant response rating: 65
[1]; [13]
  Ragweed plant response rating: 80
[1]; 250 g ai/ha, scale 0 to 100
  Plant response rating, Ragweed: 80
[1]; 500 g ai/ha, scale 0 to 100
  Plant response rating, Ragweed: 85
[2]; [12]
  Lambsquarters plant response rating: 60
[2]; [13]
  Lambsquarters plant response rating: 75
[2]; 250 g ai/ha, scale 0 to 100
  Plant response rating, Lambsquarters: 85
[2]; 500 g ai/ha, scale 0 to 100
  Plant response rating, Lambsquarters: 90
[3]; [12]
  Morningglory plant response rating: 80
[3]; [13]
  Morningglory plant response rating: 80
[3]; 250 g ai/ha, scale 0 to 100
  Plant response rating, Morningglory: 85
[3]; 500 g ai/ha, scale 0 to 100
  Plant response rating, Morningglory: 100
[4]; [12]
  Goosegrass plant response rating: 0
[4]; [13]
  Goosegrass plant response rating: 0
[4]; 250 g ai/ha, scale 0 to 100
  Plant response rating, Goosegrass: 0
[4]; 500 g ai/ha, scale 0 to 100
  Plant response rating, Goosegrass: 0
[5]; [12]
  Bermudagrass plant response rating: 0
[5]; [13]
  Bermudagrass plant response rating: 0
[5]; 250 g ai/ha, scale 0 to 100
  Plant response rating, Bermudagrass: 0
[5]; 500 g ai/ha, scale 0 to 100
  Plant response rating, Bermudagrass: 0
[6]; [12]
  Velvetleaf plant response rating: 0
[6]; [13]
  Velvetleaf plant response rating: 20
[6]; 250 g ai/ha, scale 0 to 100
  Plant response rating, Velvetleaf: 60
[6]; 500 g ai/ha, scale 0 to 100
  Plant response rating, Velvetleaf: 65
[7]; [12]
  Soybean plant response rating: 75
[7]; [13]
  Soybean plant response rating: 95
[7]; 250 g ai/ha, scale 0 to 100
  Plant response rating, Soybean: 95
[7]; 500 g ai/ha, scale 0 to 100
  Plant response rating, Soybean: 95
[8]; [12]
  Nutsedge, Yellow plant response rating: 0
[8]; [13]
  Nutsedge, Yellow plant response rating: 0
[8]; 250 g ai/ha, scale 0 to 100
  Plant response rating, Nutsedge, Yellow: 0
[8]; 500 g ai/ha, scale 0 to 100
  Plant response rating, Nutsedge, Yellow: 0
[9]; [12]
  Surinam Grass plant response rating: 0
[9]; [13]
  Surinam Grass plant response rating: 0
[9]; 250 g ai/ha, scale 0 to 100
  Plant response rating, Surinam Grass: 0
[9]; 500 g ai/ha, scale 0 to 100
  Plant response rating, Surinam Grass: 0
[10]; [12]
  Cupgrass, Woolly plant response rating: 0
[10]; [13]
  Cupgrass, Woolly plant response rating: 0
[10]; 250 g ai/ha, scale 0 to 100
  Plant response rating, Cupgrass, Woolly: 0
[10]; 500 g ai/ha, scale 0 to 100
  Plant response rating, Cupgrass, Woolly: 0
[11]; [12]
  Foxtail, Giant plant response rating: 0
[11]; [13]
  Foxtail, Giant plant response rating: 0
[11]; 250 g ai/ha, scale 0 to 100
  Plant response rating, Foxtail, Giant: 0
[11]; 500 g ai/ha, scale 0 to 100
  Plant response rating, Foxtail, Giant: 0
